Reference: patent publication US8779004B2, “Stable emulsion formulations” (Amgen, Inc., priority 2006, dated 2014)

Key:
[1] = Zeta-potential vs pH of cinacalcet emulsions containing sodium oleate; type: physicochemical; details: cinacalcet emulsion; for pH at which charge is zero: from linear regression line; for zeta-potential: in mV (unit assumed)
Experimental: Preparation of Each Emulsion: the Emulsion were Prepared Using Substantially the same method as discussed above in Example 2 under “Laboratory scale preparation.” Briefly, the aqueous phase was prepared by adding appropriate amounts of glycerin and water to an appropriate container. The glycerin and water were mixed well and maintained at elevated temperatures (60-70° C.) by immersing the container in a water batch.
The oil phase was prepared by adding appropriate oil and lecithin. The container was tared and the cinacalcet free base was added. Appropriate quantity of sodium oleate (between 0-1%) was added to this oil phase mixture. The oil/lecithin/cinacalcet mixture was mixed at an elevated temperature using sonicater probes to disperse/dissolve the lecithin, the Cinacalcet free base and the sodium oleate.
The hot oil phase was transferred to the aqueous phase at elevated temperatures and homogenized to obtain coarse emulsion. Fine emulsion was obtained using a microfluidizer.
Charge Measurement: Zeta-potential as a function of pH was determined using a Malvern Zetasizer Nano Series Model ZEN 3600 laser-scattering particle electrophoretic analyzer that measures the electrophoretic mobility and zeta potential distribution. Samples were prepared for the zeta potential titration by diluting each emulsion approximately 2500-fold in water. The pH of this mixture was noted after dilution, and then adjusted to a pH 9 using sodium hydroxide. The pH was then titrated down to pH 6 in 0.3 or 0.5 unit steps. Zeta potential measurements were taken at every step. The zeta-potential of each emulsion was plotted as a function of pH and fit to a linear regression line.

[2] = system: rabbit ear vein; test: Acute local venous toxicity / irritation in the rabbit ear vein (REV); type: in vivo; set-up: Erythema / Edema: scale not given here
From the text: This Example illustrates the protective effect of the formulations of the invention as measured by irritation in the rabbit ear vein (REV). A typical protocol for evaluation of the local tolerance for formulations was as follows.
Dosing of animals. The rabbits used were male New Zealand rabbits weighing approximately 2.5 to 4 kg. The rabbits were acclimatized for a period of 10 days following receipt before the start of the study. The rabbits were randomized into groups based on the number of formulations to be studied. Typically 3 rabbits were used per group.
For each group of rabbits, the formulation containing the drug to be tested was dosed in the right marginal ear vein, with the corresponding placebo being dosed at the same time in the left marginal ear vein. The placebos were prepared such that they matched the formulation composition, and the technique of dosing for the drug formulations and the placebo formulations were kept the same. Typical dosing volumes ranged from 1 mL/kg to 5 mL/kg. The formulations were either dosed as (a) bolus injection wherein the entire dosing volume was administered within 5 minutes; (b) 30 minute infusion; or (c) a 2 hour infusion. The formulations were administered through appropriately sized syringes and catheters. The injection sites were marked with indelible ink for identification at each observation period. The rabbits were dosed based upon the Day 1 body weight.
Observation of animals. Each animal was observed cage side at least twice daily for mortality/morbundity. Each animal received a detailed clinical observation once prior to randomization, once prior to dosage administration and once daily thereafter.
Any abnormalities were recorded as they were observed. Observations for local irritation were scored according to the following scale
At each interval the area of irritation (if present) was also measured. The actual length and width in mm was recorded.
On day 3 the animals were euthanized and the tissues from the Pinna of the left and right ear, and any gross lesions (if present) of the ear or ear vein were collected. Histopathology was performed on the collected tissues. After fixation, the pinna was tripped into a total of 4 sections of 1 cm each; one of which included the deposition site (location of the end of the catheter in the ear) and one from approximately 1-, 2-, and 3-cm downstream from the deposition site. Each section included skin, cartilage, vein and other soft tissue. These tissues were then embedded in paraffin, sectioned and stained with hematoxylin and eosin, and examined via light microscopy.

[3] = emulsion with DEA buffer 0.05%, pH 9, Bolus dose, 2 mg/kg (conc. 10 mg/mL), 0 h
[4] = emulsion with DEA buffer 0.05%, pH 9, Bolus dose, 2 mg/kg (conc. 10 mg/mL), 48 h
[5] = emulsion with TRIS buffer 5 mM, pH 9, Bolus dose, 2 mg/kg (conc. 10 mg/mL), 0 h
[6] = emulsion with TRIS buffer 5 mM, pH 9, Bolus dose, 2 mg/kg (conc. 10 mg/mL), 48 h
[7] = emulsion with TRIS buffer 20 mM, pH 9, 2-hour infusion, 2 mg/kg (conc. 0.5 mg/mL), 0 h
[8] = emulsion with TRIS buffer 20 mM, pH 9, 2-hour infusion, 2 mg/kg (conc. 0.5 mg/mL), 48 h
[9] = solution in acetate mannitol buffer, pH 4, 2 hour infusion, 2 mg/kg (conc. 0.5 mg/mL), 0 h
[10] = solution in acetate mannitol buffer, pH 4, 2 hour infusion, 2 mg/kg (conc. 0.5 mg/mL), 48 h
[11] = solution in acetate mannitol buffer, pH 4, Bolus dose, 2 mg/kg (conc. 0.5 mg/mL), 0 h
[12] = solution in acetate mannitol buffer, pH 4, Bolus dose, 2 mg/kg (conc. 0.5 mg/mL), 48 h
[13] = solution in acetate mannitol buffer, pH 4, Bolus dose, 2 mg/kg (conc. 1 mg/mL), 0 h
[14] = solution in acetate mannitol buffer, pH 4, Bolus dose, 2 mg/kg (conc. 1 mg/mL), 48 h

In the case of `C[C@@H](NCCCc1cccc(C(F)(F)F)c1)c1cccc2ccccc12` [Cinacalcet, N-(1-(R)-(1-naphthyl)ethyl]-3-[3-(trifluoromethyl)phenyl]-1-aminopropane], the “pH at which charge is zero” value ([1]; 0% Na Oleate) is reported as 8.02, the “pH at which charge is zero” value ([1]; 0.25% Na Oleate) is reported as 7.87 and the “pH at which charge is zero” value ([1]; 0.5% Na Oleate) is reported as 7.81. The “pH at which charge is zero” value ([1]; 1% Na Oleate) was 7.54, the zeta-potential ([1]; pH 6.5, 0% Na Oleate) was 32.8 and the zeta-potential ([1]; pH 6.5, 0.25% Na Oleate) was 36. For the same compound, the zeta-potential ([1]; pH 6.5, 0.5% Na Oleate) was 37.4, the zeta-potential ([1]; pH 6.5, 1% Na Oleate) was 24.5 and the zeta-potential ([1]; pH 7.0, 0% Na Oleate) was 17.8. It also gave a zeta-potential ([1]; pH 7.0, 0.25% Na Oleate) of 28.1, a zeta-potential ([1]; pH 7.0, 0.5% Na Oleate) of 27.8 and a zeta-potential ([1]; pH 7.0, 1% Na Oleate) of 23.8. The zeta-potential ([1]; pH 7.5, 0% Na Oleate) was 15.3, the zeta-potential ([1]; pH 7.5, 0.25% Na Oleate) was 7.24 and the zeta-potential ([1]; pH 7.5, 0.5% Na Oleate) was 16.2. For the same compound, the zeta-potential ([1]; pH 7.5, 1% Na Oleate) was 4.87, the zeta-potential ([1]; pH 8.0, 0% Na Oleate) was 15 and the zeta-potential ([1]; pH 8.0, 0.25% Na Oleate) was 2.83. For the same compound, the zeta-potential ([1]; pH 8.0, 0.5% Na Oleate) was 0.242, the zeta-potential ([1]; pH 8.0, 1% Na Oleate) was −10.7 and the zeta-potential ([1]; pH 8.5, 0% Na Oleate) was −16.7. It also gave a zeta-potential ([1]; pH 8.5, 0.25% Na Oleate) of −10, a zeta-potential ([1]; pH 8.5, 0.5% Na Oleate) of −26.8 and a zeta-potential ([1]; pH 8.5, 1% Na Oleate) of −30.4. It also gave a zeta-potential ([1]; pH 9.0, 0% Na Oleate) of −26.5, a zeta-potential ([1]; pH 9.0, 0.25% Na Oleate) of −42.5 and a zeta-potential ([1]; pH 9.0, 0.5% Na Oleate) of −42.1. For the same compound, the zeta-potential ([1]; pH 9.0, 1% Na Oleate) was −52.9, the local venous toxicity ([2]; administered IV as a solution, acetate mannitol buffer at pH 4) was “mild to moderate” and the “local venous toxicity effects” value ([2]; cinacalcet-containing emulsions, compared with solution) was “greatly reduced or completely eliminated”. The tolerability ([2]; emulsion buffered with either TRIS or DEA, dosed as bolus) was “well tolerated”, the tolerability ([2]; emulsion containing TRIS dosed as an infusion) was “well tolerated” and the Edema [2, 3] was 0.0 ± 0.0. For the same compound, the Erythema [2, 3] was 0.3 ± 0.6, the Edema [2, 4] was 0.0 ± 0.0 and the Erythema [2, 4] was 0.0 ± 0.0. The Histopathology ([2]; emulsion with DEA buffer 0.05%, pH 9, Bolus dose, observed for both placebo and cinacalcet emulsions) was “Mild to moderate perivascular acute”, the Edema [2, 5] was 0.0 ± 0.0 and the Erythema [2, 5] was 0.0 ± 0.0. The Edema [2, 6] was 0.0 ± 0.0, the Erythema [2, 6] was 0.0 ± 0.0 and the Histopathology ([2]; emulsion with TRIS buffer 5 mM, pH 9, Bolus dose, observed for both placebo and cinacalcet emulsions) was “Minimal to mild perivascular acute”. The Histopathology ([2]; emulsion with TRIS buffer 20 mM, pH 9, 2-hour infusion, 2 mg/kg (conc. 0.5 mg/mL)) was “lipid emulsion was well tolerated as a 2 hour”, the Edema [2, 7] was 0.0 ± 0.0 and the Erythema [2, 7] was 0.0 ± 0.0. For the same compound, the Edema [2, 8] was 0.0 ± 0.0, the Erythema [2, 8] was 0.0 ± 0.0 and the Histopathology ([2]; solution in acetate mannitol buffer, pH 4, 2 hour infusion, 2 mg/kg (conc. 0.5 mg/mL)) was “mild to severe acute, necrotizing inflammation”. For the same compound, the Edema [2, 9] was 0.0 ± 0.0, the Erythema [2, 9] was 0.0 ± 0.0 and the Edema [2, 10] was 3.3 ± 1.2. The Erythema [2, 10] was 4.0 ± 0.0, the Histopathology ([2]; solution in acetate mannitol buffer, pH 4, Bolus dose, 2 mg/kg) was “Mnimal to mild infiltrates of mixed” and the Edema [2, 11] was 0.0 ± 0.0. For the same compound, the Erythema [2, 11] was 0.0 ± 0.0, the Edema [2, 12] was 1.7 ± 0.6 and the Erythema [2, 12] was 2.7 ± 0.6. The Edema [2, 13] was 0.0 ± 0.0, the Erythema [2, 13] was 0.0 ± 0.0 and the Edema [2, 14] was 2.0 ± 1.7. For the same compound, the Erythema [2, 14] was 2.7 ± 0.6, the Histopathology ([2]; solution in acetate mannitol buffer, pH 4, Bolus dose, at the higher dose) was “Mild to severe effects seen at the higher” and the “tolerability when administered IV” value ([2]; solution, acetate mannitol buffer at pH 4) was “poorly tolerated”.
